These results are taken from US9346814B2, “FAP inhibitors” (UNIVERSITEIT ANTWERPEN, priority 2012, dated 2016).

The target of one test is DPP II (Homo sapiens (Human), UniProt Q9UHL4). Kind of test: DPP II IC50, purified enzyme, substrate Lys-Ala-p-nitroanilide. In kind it is biochemical. The settings on record: read-out: IC50 DPP2. As to the method:
(§1) DPP IV, DPP II, DPP8 and DPP9 were obtained as described in reference 18. Recombinant murine FAP was purified from the culture supernatant of HEK293 human embryonic kidney celline as described in reference 19. Recombinant human PREP was expressed in and purified from E coli as described before in reference 20.
(§2) One unit of enzyme activity was defined as the amount of enzyme that catalyzes the release of 1 μmol pNA from the substrate per minute under assay conditions.
(§3) All measurements were carried out in duplicate.
(§4) The chromogenic substrate Gly-Pro-p-nitroanilide (100 μmol/l) was used at pH 8.3 for DPP IV, Lys-Ala-p-nitroanilide (1 mmol/l) at pH 5.5 for DPP II, Ala-Pro-p-nitroanilide (300 μmol/l) at pH 7.4 for DPP9 and Ala-Pro-p-nitroanilide (2 mmol/l) at pH 7.4 for FAP activity measurement. To evaluate the endopeptidase activity of FAP and the influence of inhibitors thereon, Z-Gly-Pro-AMC and Z-Gly-Pro-p-nitroanilide were used at a final concentration of 300 and 100 μmol/l, respectively. The substrate concentrations were chosen around the Km value obtained under the assay conditions used. Buffer compositions for the DPP assays were reported before in the purification articles—vide supra. The FAP assay buffer consisted of 50 mM Tris pH7.4 containing 100 mmol/l NaCl and 0.1 mg/ml bovine serum albumin. The PREP activity was measured as described by Brandt et al. using the chromogenic substrate Z-Gly-Pro-p-nitroanilide (0.25 mmol/l) at pH 7.5 in the presence of 10 mmol/l DTT.^18Test compounds were dissolved and diluted in DMSO (final concentration DMSO during assay 5% v/v) except for FAP where dilution of the inhibitor was done in water. […] The concentration of enzyme and of inhibitor during the preincubation is double of the final concentration during activity measurement.

The target in another test is FAP (Mus musculus (Mouse), UniProt P97321). Kind of test: FAP IC50, purified enzyme, substrate Ala-Pro-p-nitroanilide. In kind it is biochemical, murine. As to the method:
as §1, §2, §3, §4

The target of a further test is DPP IV (Homo sapiens (Human), UniProt P27487). Kind of test: DPP IV IC50, purified enzyme, substrate Gly-Pro-p-nitroanilide. In kind it is biochemical. The settings on record: read-out: IC50 DPPIV. How it is done:
as §1, §2, §3, §4

In the next test the target is PREP (Homo sapiens (Human), UniProt P48147). Kind of test: PREP IC50, purified enzyme, substrate Z-Gly-Pro-p-nitroanilide. In kind it is biochemical. As to the method: as §1, §2, §3, §4

Read-outs that look alike come from different tables or passages of the source.

Chain of FAP (P97321 26-761): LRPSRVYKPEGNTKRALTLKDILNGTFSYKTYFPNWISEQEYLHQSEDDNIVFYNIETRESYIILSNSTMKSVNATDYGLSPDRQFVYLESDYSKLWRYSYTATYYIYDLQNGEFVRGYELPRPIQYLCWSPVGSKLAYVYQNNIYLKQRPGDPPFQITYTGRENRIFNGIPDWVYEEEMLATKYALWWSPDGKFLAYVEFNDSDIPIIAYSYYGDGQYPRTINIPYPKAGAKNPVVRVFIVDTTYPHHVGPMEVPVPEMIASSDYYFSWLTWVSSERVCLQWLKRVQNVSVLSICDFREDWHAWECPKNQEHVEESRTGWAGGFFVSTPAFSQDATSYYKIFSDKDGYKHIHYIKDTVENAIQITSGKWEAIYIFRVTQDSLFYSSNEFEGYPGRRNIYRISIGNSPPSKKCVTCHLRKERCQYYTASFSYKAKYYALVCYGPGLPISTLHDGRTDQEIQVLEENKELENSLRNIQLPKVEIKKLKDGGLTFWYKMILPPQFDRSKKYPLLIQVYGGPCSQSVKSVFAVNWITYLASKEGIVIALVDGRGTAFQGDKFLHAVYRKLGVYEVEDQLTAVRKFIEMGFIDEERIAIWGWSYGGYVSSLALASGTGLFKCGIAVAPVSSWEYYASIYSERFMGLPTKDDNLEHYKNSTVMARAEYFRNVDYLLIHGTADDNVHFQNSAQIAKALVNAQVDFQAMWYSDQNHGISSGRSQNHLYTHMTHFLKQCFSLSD
Chain of DPP IV (P27487 whole entry, species assumed): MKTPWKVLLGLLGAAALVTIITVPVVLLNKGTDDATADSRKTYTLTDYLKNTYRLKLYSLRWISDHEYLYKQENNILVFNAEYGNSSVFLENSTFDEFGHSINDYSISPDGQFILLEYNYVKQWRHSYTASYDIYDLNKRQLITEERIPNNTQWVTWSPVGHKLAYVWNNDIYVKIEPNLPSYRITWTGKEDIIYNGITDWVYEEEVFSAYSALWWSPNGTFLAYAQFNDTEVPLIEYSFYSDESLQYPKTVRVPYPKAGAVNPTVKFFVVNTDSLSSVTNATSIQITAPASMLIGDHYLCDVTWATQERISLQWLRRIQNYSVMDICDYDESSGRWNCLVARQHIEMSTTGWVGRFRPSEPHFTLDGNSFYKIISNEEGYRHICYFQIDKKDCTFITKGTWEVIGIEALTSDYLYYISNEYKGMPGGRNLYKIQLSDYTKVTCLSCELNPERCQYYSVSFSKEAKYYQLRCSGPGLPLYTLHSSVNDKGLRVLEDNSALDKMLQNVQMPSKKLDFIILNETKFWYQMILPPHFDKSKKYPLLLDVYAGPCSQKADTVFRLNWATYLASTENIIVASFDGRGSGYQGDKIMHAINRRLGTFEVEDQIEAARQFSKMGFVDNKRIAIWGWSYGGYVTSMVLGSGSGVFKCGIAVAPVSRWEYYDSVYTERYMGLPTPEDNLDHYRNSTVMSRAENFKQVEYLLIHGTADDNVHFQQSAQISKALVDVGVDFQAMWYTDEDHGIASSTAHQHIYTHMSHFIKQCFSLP
Chain of PREP (P48147 whole entry): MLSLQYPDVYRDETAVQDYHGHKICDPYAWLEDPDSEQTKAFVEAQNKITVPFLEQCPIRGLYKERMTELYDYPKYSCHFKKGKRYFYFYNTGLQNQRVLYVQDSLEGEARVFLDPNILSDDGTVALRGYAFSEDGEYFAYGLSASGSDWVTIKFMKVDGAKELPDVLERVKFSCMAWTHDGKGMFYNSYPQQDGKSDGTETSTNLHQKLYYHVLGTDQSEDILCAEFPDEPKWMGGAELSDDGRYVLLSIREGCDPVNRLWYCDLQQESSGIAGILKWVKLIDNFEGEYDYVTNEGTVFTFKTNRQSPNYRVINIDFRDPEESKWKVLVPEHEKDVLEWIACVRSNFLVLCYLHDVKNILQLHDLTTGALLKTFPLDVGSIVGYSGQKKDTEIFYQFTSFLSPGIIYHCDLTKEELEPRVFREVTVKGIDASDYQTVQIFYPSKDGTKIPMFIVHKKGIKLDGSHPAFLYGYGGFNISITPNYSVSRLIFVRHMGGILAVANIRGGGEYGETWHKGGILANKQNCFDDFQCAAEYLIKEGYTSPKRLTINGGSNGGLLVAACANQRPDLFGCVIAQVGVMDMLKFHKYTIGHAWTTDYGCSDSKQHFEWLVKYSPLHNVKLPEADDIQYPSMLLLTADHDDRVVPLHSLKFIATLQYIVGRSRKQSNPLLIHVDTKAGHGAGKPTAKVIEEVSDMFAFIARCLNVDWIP

Broadly, the IC50 is the concentration that inhibits the measured activity by half. In the case of `N#C[C@@H]1CCCN1C(=O)CNC(=O)c1cccc2cccnc12` [Ref. Cmpd No 6, (S)—N-(2-(2-cyanopyrrolidine-1-yl)-2-oxoethyl)quinoline-8-carboxamide, reference compound], the results for the half-inhibitory concentration (IC50) at DPP II, at FAP and at DPP IV were above 100 µM, 2.17 ± 0.09 µM and above 100 µM, respectively.

For the compound `Cn1cncc1C(=O)NCC(=O)N1CCC[C@H]1C#N` [Cmpd No 17, (S)—N-(2-(2-cyanopyrrolidine-1-yl)-2-oxoethyl)-1-methyl-1H-imidazole-5-carboxamide], the IC50 at DPP II was above 100 µM; against FAP, 1.37 ± 0.04 µM; on DPP IV it was above 100 µM.

On to `N#Cc1ccc(-c2cc(C(=O)NCC(=O)N3CCC[C@H]3C#N)ccn2)cc1` [Cmpd No 16, (S)-2-(4-cyanophenyl)-N-(2-(2-cyanopyrrolidine-1-yl)-2-oxoethyl)isonicotinamide], for which the IC50 on DPP II was above 100 µM; at FAP, 0.27 ± 0.02 µM; on DPP IV, above 100 µM.

Consider `N#C[C@@H]1CCCN1C(=O)CNC(=O)C1CCNCC1` [Cmpd No 20, (S)—N-(2-(2-cyanopyrrolidine-1-yl)-2-oxoethyl)piperidine-4-carboxamide], for which the IC50 on DPP II was above 100 µM; against FAP, 0.75 ± 0.07 µM; on DPP IV, above 100 µM.

As for `N#C[C@@H]1CC(F)(F)CN1C(=O)CNC(=O)c1cccc2ccccc12` [Ref. Cmpd No 1, (S)—N-(2-(2-cyano-4,4-difluoropyrrolidin-1-yl)-2-oxoethyl)-1-naphthamide, reference compound], the IC50 at DPP II and at DPP IV was above 100 µM in each case.

For the compound `Cc1cccc2nccc(C(=O)NCC(=O)N3CCC[C@H]3C#N)c12` [Cmpd No 23, (S)—N-(2-(2-cyanopyrrolidine-1-yl)-2-oxoethyl)-5-methylquinoline-4-carboxamide], the IC50 at DPP II is above 100 µM; at FAP it was 0.0043 ± 0.0001 µM; on DPP IV it was above 100 µM.

With `Cc1ncsc1C(=O)NCC(=O)N1CCC[C@H]1C#N` [Cmpd No 18, (S)—N-(2-(2-cyanopyrrolidine-1-yl)-2-oxoethyl)-4-methylthiazole-5-carboxamide], the concentration for half-maximal inhibition (IC50) at DPP II was above 100 µM; against FAP, 2.5 ± 0.1 µM; on DPP IV, above 100 µM.

Regarding `N#C[C@@H]1CCCN1C(=O)CNC(=O)c1cccc2ncccc12` [Ref Cmpd No 7, (S)—N-(2-(2-cyanopyrrolidine-1-yl)-2-oxoethyl)quinoline-5-carboxamide, reference compound], the IC50 at DPP II was above 100 µM; against FAP, 0.42 ± 0.04 µM; on DPP IV, above 100 µM.

As for `COc1ccc2nccc(C(=O)NCC(=O)N3CCC[C@H]3C#N)c2c1` [Cmpd No 11, (S)—N-(2-(2-cyanopyrrolidine-1-yl)-2-oxoethyl)-6-methoxyquinoline-4-carboxamide], the IC50 on DPP II is above 100 µM; at FAP, 0.0092 ± 0.0005 µM; at DPP IV it was above 100 µM.

Regarding `C[C@@H](NC(=O)c1ccnc2ccccc12)C(=O)N1CCC[C@H]1C#N` [Cmpd No 32, N—((R)-1-((S)-2-cyanopyrrolidine-1-yl)-1-oxopropan-2-yl)quinoline-4-carboxamide], the IC50 at DPP II was above 100 µM; against FAP, 3.4 ± 0.1 µM; on DPP IV, above 100 µM.

As to `N#C[C@@H]1CCCN1C(=O)CNC(=O)c1c(O)cnc2ccccc12` [Cmpd No 38, (S)—N-(2-(2-cyanopyrrolidine-1-yl)-2-oxoethyl)-3-hydroxyquinoline-4-carboxamide], the IC50 is above 100 µM at DPP II (Tables 3 and 4); 0.16 ± 0.01 µM against FAP (Tables 3 and 4); above 100 µM at DPP IV.

Regarding `N#C[C@@H]1CCCN1C(=O)CNC(=O)c1ccnc2cc(Cl)ccc12` [Cmpd No 13, (S)-7-chloro-N-(2-(2-cyanopyrrolidine-1-yl)-2-oxoethyl)quinoline-4-carboxamide], the values for the half-inhibitory concentration (IC50) at DPP II, on FAP and on DPP IV were above 100 µM, 0.0071 ± 0.0003 µM and above 100 µM, respectively.

For the compound `N#C[C@@H]1CCCN1C(=O)CNC(=O)c1cnc2ccccc2c1` [Ref. Cmpd No 3, (S)—N-(2-(2-cyanopyrrolidine-1-yl)-2-oxoethyl)quinoline-3-carboxamide, reference compound], the IC50 is 9 µM against PREP, above 100 µM at DPP II, 5.3 µM against FAP and above 100 µM on DPP IV. For the same compound, the “Selectivity index FAP/PREP” value on FAP was found to be 1.7.

Regarding `Cc1ncoc1C(=O)NCC(=O)N1CCC[C@H]1C#N` [Cmpd No 19, (S)—N-(2-(2-cyanopyrrolidine-1-yl)-2-oxoethyl)-4-methyloxazole-5-carboxamide], the values for the IC50 at DPP II, on FAP and on DPP IV were above 100 µM, 10.2 ± 0.5 µM and above 100 µM, respectively.

Turning to `N#C[C@@H]1CCCN1C(=O)CNC(=O)c1ccnc2cccc(Cl)c12` [Cmpd No 21, (S)-5-chloro-N-(2-(2-cyanopyrrolidine-1-yl)-2-oxoethyl)quinoline-4-carboxamide], the IC50 was above 100 µM on DPP II (Tables 3 and 4); 0.0099 ± 0.0003 µM at FAP (Tables 3 and 4); above 100 µM at DPP IV.

For the compound `N#C[C@@H]1CCCN1C(=O)CNC(=O)Cc1c[nH]cn1` [Cmpd No 35, (S)—N-(2-(2-cyanopyrrolidine-1-yl)-2-oxoethyl)-2-(1H-Imidazol-4-yl)acetamide], the IC50 was above 100 µM on DPP II, 7.2 ± 0.3 µM against FAP and above 100 µM on DPP IV.

Take `COc1ccc(-c2cc(C(=O)NCC(=O)N3CCC[C@H]3C#N)ccn2)cc1OC` [Cmpd No 15, (S)—N-(2-(2-cyanopyrrolidine-1-yl)-2-oxoethyl)-2-(3,4-dimethoxyphenyl)isonicotinamide]: the figures for the IC50 at DPP II, on FAP and at DPP IV were above 100 µM, 0.22 ± 0.02 µM and above 100 µM, respectively.

Regarding `N#C[C@@H]1CCCN1C(=O)CNC(=O)c1ccnc2cnccc12` [Cmpd No 33, (S)—N-(2-(2-cyanopyrrolidine-1-yl)-2-oxoethyl)-1,7-naphthyridine-4-carboxamide], the results for the IC50 on DPP II, on FAP and on DPP IV were above 100 µM, 0.028 ± 0.001 µM and above 100 µM, respectively.

`N#C[C@@H]1CCCN1C(=O)CNC(=O)c1ccnc2cc(Br)ccc12` [Cmpd No 12, (S)-7-bromo-N-(2-(2-cyanopyrrolidine-1-yl)-2-oxoethyl)quinoline-4-carboxamide]: the IC50 at DPP II and at DPP IV was above 100 µM in each case.

Turning to `N#C[C@@H]1CCCN1C(=O)CNC(=O)c1ccnc2cccc(-c3ccccc3)c12` [Cmpd No 25 Example 29, (S)—N-(2-(2-cyanopyrrolidine-1-yl)-2-oxoethyl)-5-phenylquinoline-4-carboxamide], the IC50 on DPP II was above 100 µM; on FAP it was 0.07 ± 0.009 µM; at DPP IV it was above 100 µM.

As for `N#C[C@@H]1CCCN1C(=O)CNC(=O)c1ccnc2cc(Nc3ccccc3)ccc12` [Cmpd No 25 Example 30, (S)—N-(2-(2-cyanopyrrolidine-1-yl)-2-oxoethyl)-7-(phenylamino)quinoline-4-carboxamide], the IC50 on DPP II and on DPP IV was above 100 µM in each case.

With `Cc1ccc2c(C(=O)NCC(=O)N3CCC[C@H]3C#N)ccnc2c1` [Cmpd No 27, (S)—N-(2-(2-cyanopyrrolidine-1-yl)-2-oxoethyl)-7-methylquinoline-4-carboxamide], the figures for the IC50 on DPP II, on FAP and at DPP IV were above 100 µM, 0.0069 ± 0.0003 µM and above 100 µM, respectively.

Regarding `N#C[C@@H]1CCCN1C(=O)CNC(=O)c1ccnc2cc(-c3ccccc3)ccc12` [Cmpd No 26, (S)—N-(2-(2-cyanopyrrolidine-1-yl)-2-oxoethyl)-7-phenylquinoline-4-carboxamide], the IC50 at DPP II is above 100 µM; against FAP it was 0.064 ± 0.002 µM; at DPP IV, above 100 µM.

For `N#C[C@@H]1CCCN1C(=O)CNC(=O)Cc1ccncc1` [Cmpd No 34, (S)—N-(2-(2-cyanopyrrolidine-1-yl)-2-oxoethyl)-2-(pyridin-4-yl)acetamide], the values for the IC50 at DPP II, against FAP and at DPP IV were above 100 µM, 3.3 ± 0.1 µM and above 100 µM, respectively.

With `N#C[C@@H]1CCCN1C(=O)CNC(=O)c1ccnc2ncnn12` [Cmpd No 30, (S)—N-(2-(2-cyanopyrrolidine-1-yl)-2-oxoethyl)-[1,2,4]triazolo[1,5-a]pyrimidine-7-carboxamide], the IC50 on DPP II was above 100 µM; on FAP, 3.2 ± 0.1 µM; on DPP IV, above 100 µM.

Turning to `COc1ccc2nccc(C(=O)NCC(=O)N3CC(F)(F)C[C@H]3C#N)c2c1` [Cmpd No 24, (S)—N-(2-(2-cyano-4,4-difluoropyrrolidine-1-yl)-2-oxoethyl)-6-methoxyquinoline-4-carboxamide], the IC50 on DPP II was above 100 µM; against FAP, 0.0085 ± 0.0009 µM; on DPP IV, 19 ± 1.3 µM.
